# Assay results: patent EP0006452A1, “Hypoglycemic phenylpropynylamino benzoic acids, their salts, pharmaceutical compositions containing said compounds and their application” (THE DOW CHEMICAL COMPANY, priority 1978, dated 1980)
# Test system: alanine-induced hyperglycemic mice
# Assay: Hypoglycemic activity in alanine-induced hyperglycemic mice (serum glucose lowering)
# Type: in vivo
# Details: for percent lowering of serum glucose as compared to controls: fasted male Swiss-Webster mice, 10 m moles/kg L-alanine i.p. 15 min later, serum glucose 60 min after compound, 100% = lowering to fasting glucose level; for ED50: Mus musculus, ip, 1 h, intraperitoneal, lowering of serum glucose in alanine-induced hyperglycemic fasted male Swiss-Webster mice, read-out: ED50 (effective dose)
# Procedure: Alanine is the most glucogenic of the amino acids and also stimulates gluconeogensis in normal animals. Animals suffering from diabetes show an exaggerated hyperglycemic response to a protein or amino acid meal, therefore the hyperglycemic state induced by alanine closely parallels the response of a diabetic mammal.
# Fifteen minutes later the same mice were injected intraperitoneally with 10 m moles/kg body weight of L-alanine. […] The control consisted of both fasted mice and mice injected with alanine only. The results are expressed as percent lowering of serum glucose from the alanine induced hyperglycemic level to the fasted control glucose level, i.e. lowering to the fasting glucose level is 100% lowering.
# [1] = Dosage Level 7.5 mg/kg intraperitoneal
# [2] = Dosage Level 15 mg/kg intraperitoneal
# [3] = Dosage Level 30 mg/kg intraperitoneal
# [4] = Dosage Level 60 mg/kg intraperitoneal
compound,measurement,setting,value
"O=C(O)c1ccc(NCC#Cc2ccccc2)cc1 [Example 1, 4-((3-phenyl-2-propynyl)-amino)benzoic acid]",percent lowering of serum glucose as compared to controls,[1],36%
same,percent lowering of serum glucose as compared to controls,[2],79%
same,percent lowering of serum glucose as compared to controls,[3],98%
same,percent lowering of serum glucose as compared to controls,[4],132%
same,ED50,,8 mg/kg
"Cc1ccc(C#CCNc2ccc(C(=O)O)cc2)cc1 [Example 5, 4-((3-(4-Methyl)phenyl-2-propynyl)amino)benzoic acid]",percent lowering of serum glucose as compared to controls,[1],9%
same,percent lowering of serum glucose as compared to controls,[2],15%
same,percent lowering of serum glucose as compared to controls,[3],118%
same,percent lowering of serum glucose as compared to controls,[4],76%
same,ED50,,21 mg/kg
"O=C(O)c1ccc(NCC#Cc2ccc(Cl)cc2)cc1 [Example 4, 4-((3-(4-Chloro)phenyl-2-propynyl)amino)-ben zoic acid]",percent lowering of serum glucose as compared to controls,[4],39%
"O=C(O)c1ccc(NCC#Cc2ccc(F)cc2)cc1 [Example 3, 4((3-(4-fluoro)phenyl-2-propynyl)amino)benzoic acid]",percent lowering of serum glucose as compared to controls,[1],2%
same,percent lowering of serum glucose as compared to controls,[2],66%
same,percent lowering of serum glucose as compared to controls,[3],91%
same,percent lowering of serum glucose as compared to controls,[4],172%
same,ED50,,18 mg/kg
"O=C([O-])c1ccc(NCC#Cc2ccccc2)cc1.[Na+] [Example 2, 4-((3-phenyl-2-propynyl)-amino)benzoic acid-sodium salt]",percent lowering of serum glucose as compared to controls,[1],44%
same,percent lowering of serum glucose as compared to controls,[2],69%
same,percent lowering of serum glucose as compared to controls,[3],114%
same,percent lowering of serum glucose as compared to controls,[4],139%
same,hypoglycemic activity (in words),"summary of Table I, lowering the amount of glucose in the serum of the test animals",most active
